Assay results as given in US12600728B2, “Interleukin-17 inhibitors” (priority 2020, dated 2026).
pIC50: −log10 of the molar value. Like-named read-outs stand apart in the source and are kept apart here.

Columns and labels:
[1] = target: biotinylated human IL-17A / AF647-labeled human IL-17RA (Homo sapiens, UniProt Q16552); assay: Human IL-17A×IL-17RA TR-FRET assay; type: binding
Summary of the method: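 Compounds tested in duplicate at each concentration; neutral controls contain all components with DMSO in place of compound.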

[2] = target: recombinant human IL-17AA (Homo sapiens, UniProt Q16552); assay: IL-6 release from NHDF cells, IL-17AA plus TNF-α stimulation; type: cell-based; details: 24 hours, IL-6 by ELISA
Description: IL-6 Release from NHDF Cells (Normal Human Dermal Fibroblasts)
NHDF cells isolated from normal adult mesoderm, connective tissues were cultured in fibroblast growth medium containing 2% supplement. […] The cells were allowed to adhere overnight before they were incubated with the compound/cytokine cocktail.
Diluted compounds were pre-incubated with recombinant human IL-17AA or IL-17AF plus human TNF-α for 30 minutes at room temperature on a shaker. […] The cells were incubated with the compound/cytokines cocktail for 24 hours at 37° C. (5% CO2). […] The final DMSO or plasma concentrations were 0.1% or 20%, respectively. All compound incubations were done in duplicate. The supernatants were collected to quantify IL-6 by ELISA according to the manufacturers instructions. The optical density was measured at 450 nm by an EnVision Multilabel Plate Reader (Perkin Elmer). The IL-6 levels produced after TNF-α stimulation were subtracted from the IL-6 produced after IL-17/TNF-α co-stimulation. These IL-17-specific IL-6 concentrations were used for […] value calculation.

[3] = TR-FRET, 5 nM IL-17A, 30 nM IL-17RA, read-out: IL17AA FRET/ IL17Rawt IC50
[4] = NHDF cells, IL-17AA 30 pM + TNF-α 6 pM, read-out: IL17AA + TNF IC50 IL-6
[5] = TR-FRET, biotinylated human IL-17A 5 nM, AF647-labeled human IL-17RA 30 nM, read-out: IL17AA FRET/ IL17Rawt IC50
[6] = NHDF cells, IL-17AA 30 pM plus TNF-α 6 pM, read-out: IL17AA + TNF IC50 IL-6

biotinylated human IL-17A / AF647-labeled human IL-17RA, sequence (Q16552 24-155): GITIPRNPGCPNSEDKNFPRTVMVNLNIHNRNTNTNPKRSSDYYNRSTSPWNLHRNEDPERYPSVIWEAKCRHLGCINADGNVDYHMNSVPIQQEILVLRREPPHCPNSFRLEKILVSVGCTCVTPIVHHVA
recombinant human IL-17AA, sequence (Q16552 24-155): as above

Row | SMILES | pIC50 [1, 3] | pIC50 [2, 4] | pIC50 [1, 5] | pIC50 [2, 6] | also measured
1 | Cc1cc[n+]([O-])c(C)c1-c1ccc(NC(=O)[C@@H](NC(=O)c2ccnn2C)C(c2ccccc2)c2ccccc2)cc1 [Example 193, (S)-2,4-dimethyl-3-(4-(2-(1-methyl-1H-pyrazole-5-carboxamido)-3,3-diphenylpropanamido)phenyl)pyridine 1-oxide] | 7.01 | 7.33 |  |  | 
2 | Cc1cc[n+]([O-])c(C)c1-c1ccc(NC(=O)[C@H](Cc2ccccc2Cl)NC(=O)c2ccc3n2CCNC3)cc1 [Example 190, (S)-3-(4-(3-(2-chlorophenyl)-2-(1,2,3,4-tetrahydropyrrolo[1,2-a]pyrazine-6-carboxamido)propanamido)phenyl)-2,4-dimethylpyridine 1-oxide] | 6.91 | 6.56 |  |  | 
3 | Cc1cc[n+]([O-])c(C)c1-c1ccc(NC(=O)[C@@H](NC(=O)c2ccnn2C)C2CCC(F)(F)CC2)cc1 [Example 32, (S)-3-(4-(2-(4,4-difluorocyclohexyl)-2-(1-methyl-1H-pyrazole-5-carboxamido)acetamido)phenyl)-2,4-dimethylpyridine 1-oxide] |  |  | 6.54 | 7.30 | 
4 | Cc1c(-c2ccc(NC(=O)[C@@H](NC(=O)c3ccc4n3CCN(C)C4)C3CCCCC3)cc2F)c(Cl)cc[n+]1[O-] [Example 124, 4-chloro-3-(4-((S)-2-cyclohexyl-2-(2-methyl-1,2,3,4-tetrahydropyrrolo[1,2-a]pyrazine-6-carboxamido)acetamido)-2-fluorophenyl)-2-methylpyridine 1-oxide] |  |  | 6.76 | 8.10 | 
5 | Cc1cc[n+]([O-])c(C)c1-c1ccc(NC(=O)[C@H](Cc2ccccc2)NC(=O)c2conc2C)cc1 [Example 74, (S)-2,4-dimethyl-3-(4-(2-(3-methylisoxazole-4-carboxamido)-3-phenylpropanamido)phenyl)pyridine 1-oxide] |  |  | 5.82 | < 5.00 | 
6 | Cc1cc[n+]([O-])c(C)c1-c1ccc(NC(=O)[C@@H](NC(=O)c2ccc3n2CCN(C)C3)C2CC=C(F)CC2)cc1 (stereo partly drawn) [Example 128, 3-(4-((2S)-2-(4-fluorocyclohex-3-en-1-yl)-2-(2-methyl-1,2,3,4-tetrahydropyrrolo[1,2-a]pyrazine-6-carboxamido)acetamido)phenyl)-2,4-dimethylpyridine 1-oxide] |  |  | 6.52 | 7.27 | 
7 | Cc1c(-c2ccc(NC(=O)[C@@H](NC(=O)c3ccnn3C(C)C)C3CCCCC3)cc2F)ccc[n+]1[O-] [Example 82, (S)-3-(4-(2-cyclohexyl-2-(1-isopropyl-1H-pyrazole-5-carboxamido)acetamido)-2-fluorophenyl)-2-methylpyridine 1-oxide] |  |  | 7.07 | 7.46 | 
8 | CCc1nocc1C(=O)N[C@H](C(=O)Nc1ccc(-c2c(C(F)(F)F)ccnc2C)cc1)C1CCCC1 [compound 139, (S)-N-(1-cyclopentyl-2-((4-(2-methyl-4-(trifluoromethyl)pyridin-3-yl)phenyl)amino)-2-oxoethyl)-3-ethylisoxazole-4-carboxamide, reference compound] |  |  |  |  | pIC50 ([1]; TR-FRET, 5 nM IL-17A, 30 nM IL-17RA, reference examples (pyridines), read-out: IL17AA FRET/ IL17RAwt IC50): 6.05; pIC50 ([2]; NHDF cells, IL-17AA 30 pM + TNF-α 6 pM, reference examples (pyridines), read-out: IL 17AA + TNF IC50 IL-6): 6.82
9 | Cn1nccc1C(=O)N[C@H](C(=O)Nc1ccc(-c2c[n+]([O-])ccc2Cl)cc1)C1CCCCC1 [Example 112, (S)-4-chloro-3-(4-(2-cyclohexyl-2-(1-methyl-1H-pyrazole-5-carboxamido)acetamido)phenyl)pyridine 1-oxide] |  |  | 5.98 | 6.79 | 
10 | Cc1cc[n+]([O-])c(C)c1-c1ccc(NC(=O)[C@@H](NC(=O)c2ccc3n2CCNC3)C2CCC(F)(F)CC2)cc1 [Example 207, (S)-3-(4-(2-(4,4-difluorocyclohexyl)-2-(1,2,3,4-tetrahydropyrrolo[1,2-a]pyrazine-6-carboxamido)acetamido)phenyl)-2,4-dimethylpyridine 1-oxide] | 6.52 | 7.16 |  |  | 
11 | Cc1c(-c2ccc(NC(=O)C(NC(=O)c3ccnn3C(C)C)C3CCCC(F)(F)C3)cc2)c(Cl)cc[n+]1[O-] (stereo not shown) [Example 158, 4-chloro-3-(4-(2-(3,3-difluorocyclohexyl)-2-(1-isopropyl-1H-pyrazole-5-carboxamido)acetamido)phenyl)-2-methylpyridine 1-oxide] | > 8.21 | 7.81 |  |  | 
12 | Cc1c(-c2ccc(NC(=O)[C@@H](NC(=O)c3ccnn3C)C3CC=C(F)CC3)cc2)c(Cl)cc[n+]1[O-] (stereo partly drawn) [Example 55, 4-chloro-3-(4-((2S)-2-(4-fluorocyclohex-3-en-1-yl)-2-(1-methyl-1H-pyrazole-5-carboxamido)acetamido)phenyl)-2-methylpyridine 1-oxide] |  |  | 7.42 | 7.57 | 
13 | Cc1cc[n+]([O-])c(C)c1-c1ccc(NC(=O)[C@@H](NC(=O)c2ccc3n2CCNC3)C2CCC(F)CC2)cc1 (stereo partly drawn) [Example 200, 3-(4-((2S)-2-(4-fluorocyclohexyl)-2-(1,2,3,4-tetrahydropyrrolo[1,2-a]pyrazine-6-carboxamido)acetamido)phenyl)-2,4-dimethylpyridine 1-oxide] | 6.61 | 6.38 |  |  | 
14 | Cc1cc[n+]([O-])c(C)c1-c1ccc(NC(=O)[C@@H](NC(=O)c2ccnn2C)C2CCCCC2)cc1 [Example 39, (S)-3-(4-(2-cyclohexyl-2-(1-methyl-1H-pyrazole-5-carboxamido)acetamido)phenyl)-2,4-dimethylpyridine 1-oxide] |  |  | 6.72 | 7.70 | 
15 | Cc1c(-c2ccc(NC(=O)[C@@H](NC(=O)c3ccnn3C)C3CCC(F)(F)CC3)cc2)c(Cl)cc[n+]1[O-] [Example 52, (S)-4-chloro-3-(4-(2-(4,4-difluorocyclohexyl)-2-(1-methyl-1H-pyrazole-5-carboxamido)acetamido)phenyl)-2-methylpyridine 1-oxide] |  |  | 7.37 | 7.10 | 
16 | CCn1nccc1C(=O)NC(C(=O)Nc1ccc(-c2c(C)cc[n+]([O-])c2C)cc1)C1CCC(C(F)(F)F)CC1 [Example 7, 3-(4-((S)-2-(1-ethyl-1H-pyrazole-5-carboxamido)-2-((1r,4S)-4-(trifluoromethyl)cyclohexyl)acetamido)phenyl)-2,4-dimethylpyridine 1-oxide] |  |  |  |  | pIC50 ([1]; IL17AA FRET/ IL17Rawt IC50, TR-FRET, biotinylated human IL-17A 5 nM, AF647-labeled human IL-17RA 30 nM): 7.34; pIC50 ([2]; IL17AA + TNF IC50 IL-6, NHDF cells, IL-17AA 30 pM plus TNF-α 6 pM): 7.59
17 | Cc1cc[n+]([O-])c(C)c1-c1ccc(NC(=O)[C@@H](NC(=O)c2ccnn2C)C2CCCC2)cc1 [Example 36, (S)-3-(4-(2-cyclopentyl-2-(1-methyl-1H-pyrazole-5-carboxamido)acetamido)phenyl)-2,4-dimethylpyridine 1-oxide] |  |  | 5.85 | 7.42 | 
18 | Cc1cc[n+]([O-])c(C)c1-c1ccc(NC(=O)[C@@H](NC(=O)c2ccnn2C2CC2)C2CCCCCC2)cc1 [Example 42, (S)-3-(4-(2-cycloheptyl-2-(1-cyclopropyl-1H-pyrazole-5-carboxamido)acetamido)phenyl)-2,4-dimethylpyridine 1-oxide] |  |  | 7.59 | 7.92 | 
19 | Cc1cc[n+]([O-])c(C)c1-c1ccc(NC(=O)[C@@H](NC(=O)c2ccc3n2CCNC3)C2CCCCC2)cc1 [Example 205, (S)-3-(4-(2-cyclohexyl-2-(1,2,3,4-tetrahydropyrrolo[1,2-a]pyrazine-6-carboxamido)acetamido)phenyl)-2,4-dimethylpyridine 1-oxide] | 6.54 | 7.24 |  |  | 
20 | Cc1nocc1C(=O)NC(C(=O)Nc1ccc(-c2c(Cl)cc[n+]([O-])c2C)cc1)C1CC2CC2C1 (single isomer, unassigned) [Example 181] | 7.26 | 7.19 |  |  | 
21 | Cc1c(-c2ccc(NC(=O)[C@@H](NC(=O)c3ccnn3C)[C@H]3CCCC(F)(F)C3)cc2)c(C(F)(F)F)cc[n+]1[O-] [Example 183, 3-(4-((S)-2-((S)-3,3-difluorocyclohexyl)-2-(1-methyl-1H-pyrazole-5-carboxamido)acetamido)phenyl)-2-methyl-4-(trifluoromethyl)pyridine 1-oxide] | 7.27 | 7.38 |  |  | 
22 | COCc1nocc1C(=O)N[C@H](C(=O)Nc1ccc(-c2c(Cl)cc[n+]([O-])c2C)c(F)c1)C1CCCCC1 [Example 90, 4-chloro-3-(4-((S)-2-cyclohexyl-2-(3-(methoxymethyl)isoxazole-4-carboxamido)acetamido)-2-fluorophenyl)-2-methylpyridine 1-oxide] |  |  | 7.19 | 8.30 | 
23 | Cc1c(-c2ccc(NC(=O)[C@@H](NC(=O)c3ccc4n3CCNC4)C3CCCCC3)cc2)c(Cl)cc[n+]1[O-] [Example 206, (S)-4-chloro-3-(4-(2-cyclohexyl-2-(1,2,3,4-tetrahydropyrrolo[1,2-a]pyrazine-6-carboxamido)acetamido)phenyl)-2-methylpyridine 1-oxide] | 6.53 | 7.20 |  |  | 
